Reference: patent publication US20080275036A1, “Prevention and treatment of cardiac conditions” (APT Pharmaceuticals, Inc., priority 2007, published 2008)

What was measured:
[1] = cited from earlier work
[2] = system: isolated, perfused guinea pig heart; test: Perfusion of doxorubicin and dexrazoxane in the isolated, perfused guinea pig heart (Langendorff); conditions: for % change in MAP duration / % change in QTc / Cardiac rate / Cor flow / LV dp/dt max / LV dpdt (relax) / LV peak systolic pressure / LVEDP / MAP Duration / QTcF: 30 min of perfusion
Protocol: Perfusion studies of doxorubicin and dexrazoxane in the isolated, perfused guinea pig heart were performed similarly as above. The following parameters were recorded continuously: electrocardiogram (ECG), monophasic action potentials (MAP), perfusion pressure, left ventricular pressure and coronary flow. These effects could be related to some modifications of cardiac electrophysiology (changes in PR, QRS, QT and RR intervals, proarrhythmic effects, Torsade de pointes . . . ), of coronary resistance and/or of cardiac contraction or inotropism (contractility or relaxation troubles).
Stock solutions (10^−2M, 3×10^−2M) in H20 for each drug were prepared each day of the experiment and a dilution (1/1000) done in the perfusion buffer in order to get the appropriate concentrations:
The buffer used in the experiment was KREBS-[…] buffer (Sigma K-3753) to which was added sodium bicarbonate (Sigma S5761) 25 mM and calcium chloride dihydrate (Sigma C8106) 1.8 mM.
The ECG (2 electrodes: on the apex and closed to the right auricular) and the MAP (electrode on the epicardium) were recorded. PR, QRS, QT and RR were measured and QTc (Fridericia; QTc=QT/(RR) ⅓ in ms) was calculated.
The coronary flow (mL/min) is indicated by the perfusion pump. In this model, the perfusion pressure was constant.
Diastolic pressure (mmHg), systolic pressure (mmHg), differential pressure (syst-diast) (mmHg), mean pressure (mmHg), dP/dt min (mmHg/sec) dP/dt max (mmHg/sec) and cardiac frequency (beat per minute: BPM) were measured. A modification of the inotropism can be a problem of cardiac contractility (if modified systolic pressure and dP/dt max) or relaxation (if modified diastolic pressure and dP/dt min). From the left ventricular pressure, the following were calculated: heart rate (frequency of cardiac contractions), dP/dt min and dP/dt max. An acquisition unit MP150WSW with Acknowledge software (Biopac, USA) was used to continuously record all the signals (perfusion pressure, coronary flow, left ventricular pressure, ECG and MAP) through a PC computer. In each group (n=4 hearts), increasing concentrations of compound were infused according to the following design:
For each group, the data are expressed as mean ±S.E.M, % of variation compared to D0 and delta variation from D0. PR, QRS, QT and RR are measured on the same period but on a signal which results from 5 cycles.
On all the curves, the mean value is measured on 30 seconds in the last minute of perfusion for the following parameters: […]

[3] = system: isolated guinea pig myocytes; test: Action potential properties in isolated guinea pig myocytes; type: cell-based
[4] = system: isolated guinea pig myocytes; test: Calcium transients in isolated guinea pig myocytes; type: cell-based
Protocol: Calcium transients were measured during activation in isolated guinea pig myocytes. […] This increase in calcium transient without an action potential increase indicates an effect on calcium cycling proteins.

[5] = doxorubicin perfusion, 30 minute time point

For `CC(CN1CC(=O)NC(=O)C1)N1CC(=O)NC(=O)C1` (racemic) [razoxane], the “solubility in 0.1 N HCl” value ([1]; 0.1 N HCl) is listed as “sparingly soluble”, the “solubility in non-polar, organic solvents” value [1] is listed as “practically insoluble” and the “solubility in polar solvents” value ([1]; ethanol and methanol) is listed as “slightly soluble”.
In the case of `COc1cccc2c1C(=O)c1c(O)c3c(c(O)c1C2=O)C[C@@](O)(C(=O)CO)C[C@@H]3O[C@H]1C[C@H](N)[C@H](O)[C@H](C)O1` [Doxorubicin], the “% change in MAP duration” value ([2]; DOX 3 * 10^−5 mM) is reported as 13.3%, the “% change in QTc” value ([2]; DOX 3 * 10^−5 mM) is reported as 11.9 % change and the Cardiac rate ([2]; DOX 3 * 10^−5 mM) is reported as 184 Beats/min. The Cor flow ([2]; DOX 3 * 10^−5 mM) was 14.4 mL/min, the LV dp/dt max ([2]; DOX 3 * 10^−5 mM) was 887 mmHg sec^−1 and the “LV dpdt (relax)” value ([2]; DOX 3 * 10^−5 mM) was −922 mmHg sec^−1. For the same compound, the “LV peak systolic pressure” value ([2]; DOX 3 * 10^−5 mM) was 93 mmHg, the LVEDP ([2]; DOX 3 * 10^−5 mM) was 14 mmHg and the “MAP Duration” value ([2]; DOX 3 * 10^−5 mM) was 162 ms. The QTcF ([2]; DOX 3 * 10^−5 mM) was 272 ms, the “% change in MAP duration” value ([2]; DOX 10^−5 mM) was 2.2% and the “% change in QTc” value ([2]; DOX 10^−5 mM) was 1.6 % change. The Cardiac rate ([2]; DOX 10^−5 mM) was 217 Beats/min, the Cor flow ([2]; DOX 10^−5 mM) was 13.4 mL/min and the LV dp/dt max ([2]; DOX 10^−5 mM) was 1277 mmHg sec^−1. For the same compound, the “LV dpdt (relax)” value ([2]; DOX 10^−5 mM) was −1173 mmHg sec^−1, the “LV peak systolic pressure” value ([2]; DOX 10^−5 mM) was 97 mmHg and the LVEDP ([2]; DOX 10^−5 mM) was 7 mmHg. For the same compound, the “MAP Duration” value ([2]; DOX 10^−5 mM) was 142 ms, the QTcF ([2]; DOX 10^−5 mM) was 247 ms and the “LVEDP (effect in words)” value [2, 5] was “marked increase”. For the same compound, the “QTcF (effect in words)” value [2, 5] was “increased”, the APD50 ([3]; 30 μM) was 553 ± 29 ms and the APD90 ([3]; 30 μM) was 626 ± 28 ms. For the same compound, the “Action potentials, Peak amplitude” value ([3]; 30 μM) was 120 ± 3 mV, the “Action potentials, Resting potential” value ([3]; 30 μM) was −70 ± 3 mV and the APD50 ([3]; 100 μM) was 646 ± 26 ms. The “Action potentials, Peak amplitude” value ([3]; 100 μM) was 119 ± 2 mV, the “Action potentials, Resting potential” value ([3]; 100 μM) was −68 ± 3 mV and the APD50 ([3]; 300 μM) was 536 ± 48 ms. For the same compound, the APD90 ([3]; 300 μM) was 611 ± 48 ms, the “Action potentials, Peak amplitude” value ([3]; 300 μM) was 122 ± 4 mV and the “Action potentials, Resting potential” value ([3]; 300 μM) was −69 ± 2 mV. The “action potential duration (effect in words)” value ([3]; over the tested concentrations) was “profound prolongation”, the “Ca^2+ transients, Peak amplitude (ΔF/F0)” value ([4]; 30 μM) was 3.0 ± 0.7 ΔF/F0 and the “Ca^2+ transients, Peak amplitude (ΔF/F0)” value ([4]; 100 μM) was 3.1 ± 0.5 ΔF/F0. The “Ca^2+ transients, Peak amplitude (ΔF/F0)” value ([4]; 300 μM) was 1.6 ± 0.3 ΔF/F0 and the “calcium transients (effect in words)” value ([4]; over the tested concentrations) was “dose related decrease”.
